{
  "source": "patent US20120315290A1",
  "about": "“INHIBITORS OF LL-37 MEDIATED IMMUNE REACTIVITY TO SELF NUCLEIC ACIDS” (BOARD OF REGENTS, THE UNIVERSITY OF TEXAS SYSTEM, priority 2006, published 2012)",
  "key": {"B16-OVA tumor": {"tested_on": "B16-OVA tumor", "experiment": "Vaccination of mice bearing established B16-OVA melanoma, tumor size", "type": "in vivo, C57BL/6 mice", "details": "mixed with irradiated B16-OVA", "experimental": "Mice bearing a 7-d subcutaneous B16 melanoma transfected with a gene encoding OVA (B16-OVA) were vaccinated subcutaneously with 1) LL-37 alone; irradiated B16-OVA tumor (iB16-OVA); irradiated B16-OVA tumor mixed with […] CpG-2216 (iB16-OVA+CpG); irradiated B16-OVA tumor with […] LL-37 (iB16-OVA+LL-37). Tumor size was monitored by caliper every second day. Data represent mean of 4 mice per group.\nWe also performed vaccine studies using the B16 tumor model of melanoma, B16 is a highly aggressive tumor with low immunogenicity. B16 tumor cells can be transfected with ovalbumin (OVA) to provide an immunogen that allows easy tracking of the anti-tumor immune response. 3×10^5 B16-OVA tumor cells were implanted subcutaneously in the flank of C57BL/6 mice and allowed to grow. Seven days later mice were treated with a single subcutaneous injection of LL-37 mixed with irradiated B16-OVA tumor cells. Control injections included LL-37 alone, irradiated B16-OVA alone, or irradiated B16-OVA mixed with the synthetic TLR9 agonist CpG. A detailed method on the generation of these vaccines is provided in D2.1. Tumor size was monitored with a caliper and volumes estimated using the formula […]. The experiment was stopped 10 days after injection because all mice in the control group had died or their tumor had reached 20 mm in their maximal diameter."}, "[1]": {"tested_on": "myeloid (monocyte-derived) DC", "experiment": "Myeloid DC maturation (CD80) and cytokine secretion", "type": "cell-based, human", "details": "RNA 10 μg ml^−1 premixed with LL-37 (10 μM), overnight culture", "experimental": "(§1) Myeloid (monocyte-derived) DC were stimulated with RNA isolated from U937 cells (human RNA) or a synthetic single-stranded RNA sequence derived from HIV (ssRNA40) and a known TL-7/8 ligand either alone (10 pg ml^−1) or after premixing with LL-37 (10 μM). (a) Maturation was assessed by flow cytometry analysis of CD80 after overnight culture.\nas §1, with “In a second set of experiments, myeloid” for “Myeloid”, “TLR-7/8” for “TL-7/8”, “μg” for “pg”, “μM).” for “μM). (a)”, “culture (FIG. 21A). Levels of TNF-α, IL-6, EL-12, and IL-23 were measured after overnight culture (FIG. 21B).” for “culture.”"}, "B16 tumors": {"tested_on": "B16 tumors", "experiment": "Intratumoral or intramuscular injection, cytokine mRNA by real-time PCR", "type": "in vivo, C57BL/6 mice", "experimental": "[…] of LL-37, CpG-A or PBS alone was injected into B16 tumors grown for 7 days in Flt-L treated mice. Tumors were harvested after 6, 24, 48 and 72 h, total RNA was extracted and expression of indicated cytokines was measured by real-time PGR. Data represent expression relative to GAPDH RNA. Some mice were injected with […] of LL-37 for 3 times (t0, t24 and t48) and tumor was harvested at 72 h for RNA expression analysis.\nLL-37, CpG, or saline (PBS) was injected into B16 tumors grown for 7 days in Flt-L treated mice. Tumors were harvested after 6, 24, 48 and 72 h, total RNA was extracted and expression of indicated cytokines was measured by real-time PGR. Data represent expression relative to GAPDH RNA. Data is representative of 5 mice.\n[…] of LL-37 were injected into 7d-established B16 skin tumors and muscle tissue of the same mice. After 6 h tumor and muscle tissue were collected for RT-PCR analysis of IFN-a2 mRNA expression. Data represent expression relative to GAPDH RNA\nIn another set of experiments, 100 μg of LL-37, CpG-A or PBS alone was injected into B16 tumors grown for 7 days in Flt-L treated mice. Tumors were harvested after 6, 24, 48 and 72 h, total RNA was extracted and expression of indicated cytokines was measured by real-time PCR. […] Some mice were injected with 100 μg of LL-37 for 3 times (t0, t24 and t48) and tumor was harvested at 72 h or RNA expression analysis.\nIntratumoral injection of LL-37 into native unmodified B16 melanoma induces potent type I IFN expression. 3×10^5 native B16 melanoma cells were inoculated into C57BL/6 mice. After 7 days, tumors were injected with 100 μg of LL-37, 40 μg CpG-2216 (CpG-A), or saline (PBS). Because LL-37-DNA binding (which will occur in the tumor) is optimal at a 3:1-5:1 ratio, we injected approximately 3 times more LL-37 than CpG-DNA. Tumors were harvested at 6 h, 24 h, 48 h, and 72 h after injection and total RNA was isolated and processed. Expression of IFN-α2 mRNA was measured by real-time PCR and normalized for expression of GAPDH mRNA.\nLL-37 can induce type I IFN expression when injected into tumors but not into healthy tissue. Because LL-37 requires the presence of self-DNA released by dying cells to induce pDC activation to produce type I IFN, we next asked whether LL-37 could selectively induce type I IFN expression in tumors (containing a high degree of cells death) and not in healthy tissue. To address this question we injected LL-37 (100 μg) into subcutaneously implanted B16 tumors as well as healthy muscle tissue. 6 h after injection, tissues were collected and IFN-α2 mRNA expression was measured by real-time PCR, as described in C12."}},
  "note": "Entries after “also recorded” stand apart in the source; their conditions may differ.",
  "data": [
    {"sequence": "LLGDFFRKSKEKIGKEFKRIVQRIKDFLRNLVPRTES [LL-37]", "values": [
      {"measurement": "Adjuvant potency compared to CpGs (CpG-2216)", "setting": "B16-OVA tumor", "value": "more potent than CpGs"},
      {"measurement": "Myeloid DC maturation and cytokine secretion", "setting": "[1]", "value": "converts self-RNA and viral RNA into activator of myeloid DC maturation and cytokine secretion"},
      {"measurement": "IFN-α2 mRNA expression in tumor compared to CpG-A", "setting": "B16 tumors; 100 μg LL-37 vs 40 μg CpG-2216", "value": "more potent then the expression induced by CpG-A"},
      {"measurement": "IFN-α2 mRNA expression in healthy muscle tissue", "setting": "B16 tumors; 100 μg injected, 6 h", "value": "not LL-37-injected healthy muscle tissue"},
      {"measurement": "IFN-α2 mRNA expression in B16 tumor", "setting": "B16 tumors; 100 μg intratumoral", "value": "induced potent IFN-α2 mRNA expression; also recorded: IFN-α2 mRNA expression only in LL-37-injected tumors"},
      {"measurement": "Expression of pro-inflammatory and T-cell-derived cytokines in tumor", "setting": "B16 tumors; 100 μg intratumoral, Flt-L treated mice, 6-72 h", "value": "induces expression of pro-inflammatory and T-cell-derived cytokines"}
    ]}
  ]
}
